Positions of bridges follow the written chain, without caps; N, C: chain ends. No end group written: not given here.
Experiments:
Staphylococcus = settings: previously described compounds; cited from earlier work
From the text: All of the lipopeptides are palmitoylated at N-terminus and contain three or four basic amino acid residues. Moreover, compounds are amidated at C-termini to maximize positive charge. […] Arginine, as a basic amino acid, introduce positive charge; however, it has more hydrogen donor atoms and is more basic (pKa~1 ...

[1] = system: Staphylococcus aureus (five reference strains ATCC 25923, ATCC 6538, ATCC 6538/P, ATCC 9144, ATCC 12598 and five clinical strains); experiment: MIC assay, broth microdilution; assay type: cell-based; settings: planktonic S. aureus, 5 × 10^5 CFU/mL, 18 h, 37 °C, Figure 1, mean MIC
Experimental: Antimicrobial activity was determined against five reference strains: S. aureus ATCC 25923, S. aureus ATCC 6538, S. aureus ATCC 6538/P, S. aureus ATCC 9144, and S. aureus ATCC 12598, which were obtained from the Polish Collection of Microorganisms (Polish Academy of Sciences, Wroclaw), and against five clinical strains of S. aureus, which were provided by the Department of Oral Microbiology, Medical University of Gdańsk (Poland). These strains were also characterized in terms of methicillin resistance. Preliminary identification and detection was conducted on the ChromID MRSA/ChromID S. aureus biplate (bioMérieux) for simultaneous detection of S. aureus and methicillin-resistant S. aureus (MRSA). All tested strains (both reference and clinical S. aureus) were stored in cryo-vials (Roti®-Store, Carl Roth) and recultivated before all microbiological tests. All strains were cultured in three different media: Brain-Heart Infusion Broth (BHI, Biocorp, Warsaw, Poland), Mueller Hinton Broth (MH, Biocorp), and Tryptic-Soy Broth (TSB, Biocorp). Moreover, the stock solutions of lipopeptides were prepared in two different solvents: PBS and an aqueous solution of acetic acid/BSA (0.01% and 0.2% respectively). MIC was determined by broth microdilution method on polystyrene 96-well plates. Bacteria at initial inoculums of 5 × 10^5 CFU/mL were exposed to lipopeptides at concentrations ranging from 0.5 to 256 µg/mL and incubated for 18 h at 37 °C. The MIC value was taken as the lowest concentration of the compound that inhibited the growth of the microorganisms. All assays were performed in triplicate and included the growth and sterility control.

S. aureus = settings: cited from earlier work
From the text: (§1) It should be noted that conclusions drawn from the in vitro studies are not always consistent with those determined in vivo. Nevertheless, these “not-ideal” conditions may reveal an unexpected activity of new compounds. […] In this case, the MIC values decreased down to sixteenfold in the presence of plasma. The synergistic effect may be connected with complement proteins or clotting factors, as the a ...

Escherichia coli = settings: cited from earlier work
From the text: as §1

Enterococcus faecalis = settings: cited from earlier work
From the text: as §1

Pseudomonas aeruginosa = settings: cited from earlier work
From the text: as §1

Substance	antistaphylococcal activity (Staphylococcus)	MIC values in BHI and TSB compared with MH (influence of medium type) [1]	further results
Pal-RRR-NH2	high antistaphylococcal activity	–	–
Pal-CRKKKC-NH2 (disulfide) [palmitoylated lipopeptide amide with intramolecular disulfide bridge]	–	slightly more active in MH	–
Pal-KKKK-NH2	high antistaphylococcal activity	–	–
protegrin-1 (RGGRLCYCRRRFCVCVGR-NH2; disulfide 8-13, 6-15; ends not checked; UniProt P32194 131-148, looked up) [antimicrobial peptide studied by Steinberg et al. (1997)]	–	–	fold lowering of MIC with peptide prepared in aqueous acetic acid and BSA vs reference CLSI protocol (S. aureus): 5 times; fold lowering of MIC with peptide prepared in aqueous acetic acid and BSA vs reference CLSI protocol (Escherichia coli): up to 30 times; fold lowering of MIC with peptide prepared in aqueous acetic acid and BSA vs reference CLSI protocol (Enterococcus faecalis): 5 times; fold lowering of MIC with peptide prepared in aqueous acetic acid and BSA vs reference CLSI protocol (Pseudomonas aeruginosa): up to 30 times
Pal-CKKRKC-NH2 (disulfide) [palmitoylated lipopeptide amide with intramolecular disulfide bridge]	–	slightly more active in MH	–
Pal-CKKKRC-NH2 [Pal-CKKKRC-NH2 (linear), non-cyclized palmitoylated lipopeptide amide with two cysteine residues]	–	this dependence was not observed	–

From publication PMC5617979, “Comparative Study on Antistaphylococcal Activity of Lipopeptides in Various Culture Media” (Antibiotics, 2017)
